Data from patent US20220155314A1, “TROPHOBLAST STEM CELL, METHODS OF PREPARATION AND USES THEREOF” (Academia Sinica, priority 2020, published 2022).

Legend:
Assay type in all cases: cell-based, human
[1] = tested on: BeWo cells; assay: Expression of trophoblast stemness and differentiation genes in BeWo cells treated with EGF and chemical inhibitors
Description: FIGS. 6A to 6I show the regulation of trophoblast stemness and differentiation by antagonism between ΔNp63α and GCM1. […] ITGA6-positive term CTBs were cultured in complete TS medium for 5 days and then maintained in the same medium or incomplete medium (vehicle alone without EGF and chemical inhibitors) for an additional 7 days. Cells were subjected to immunofluorescence microscopy of ΔNp63α, GCM1, and hCGβ. […] BeWo cells were incubated in complete or incomplete TS medium supplemented with the indicated growth factor or chemical inhibitor(s) for 24 h. Cells were harvested for quantitative RT-PCR analysis of the indicated stemness or differentiation genes. […] BeWo cells were treated with the indicated concentration of VPA for 24 hours and then harvested for immunoblotting and quantitative RT-PCR analyses of GCM1, ΔNp63α, and hCGβ. […] BeWo cells were transfected with 4XCSL-luciferase in the presence or absence of 2 mM VPA for 48 hours, followed by luciferase assays. […] 293T cells were transfected with pHA-GCM1 and pNotch1IC-FLAG for 48 hours, followed by coimmunoprecipitation analysis and confocal microscopy using FLAG and HA mAbs and GCM1 Ab. […] EGFP-positive mock or Notch1IC-FLAG-expressing BeWo cells were treated with or without 50 μM FSK for 24 h, followed by immunoblotting and quantitative RT-PCR analyses of GCM1, hCGβ or HTRA4. […] BeWo cells were treated with or without 1 mM VPA in the presence or absence of 20 μM MG132 for 8 h and then subjected to immunoblotting analysis of GCM1 and Notch1IC. […] The EGFP-positive mock or Notch1IC-FLAG-expressing BeWo cells were transfected with the GCM1 promoter reporter plasmid E1bLUCGCM1-2K for 48 h and then subjected to luciferase assays. […] BeWo cells and ITGA6-positive term CTBs were cultured under normoxic or hypoxic conditions for 72 h and 7 days, respectively. Cells were then harvested for quantitative RT-PCR analysis of GCM1, ΔNp63α, HTRA4, hCGβ, and MKI67. Means and standard deviations obtained from three independent experiments are presented.
To study the effect of EGF and chemical inhibitors on trophoblast differentiation, BeWo cells were cultured in the complete TS medium or in the incomplete TS medium with EGF alone or the indicated chemical inhibitor(s) for 24 h. Cells were then harvested for quantitative RT-PCR or immunoblotting analysis of expression of ΔNp63α, eomesodermin (EOMES), E74-like factor 5 (ELF5) or GCM1 and its target genes.

[2] = tested on: JEG3 cells; assay: Immunoblotting and quantitative RT-PCR of trophoblast differentiation and stemness genes in JEG3 cells; conditions: 50 μM FSK or 1 mM DB-cAMP
From the text: FIGS. 2A to 2I show the physical and functional interaction between ΔNp63α and GCM1. […] First-trimester and term placental sections were stained with ΔNp63α and GCM1 antibodies (Abs) for immunofluorescence microscopy. Boxed areas are shown at higher magnification and presented below. Arrowhead, asterisk, and arrow indicate trophoblasts expressing ΔNp63α, GCM1, and both, respectively. Nuclei were stained with DAPI. Term placental sections were stained with CK7 Ab for trophoblasts and normal mouse IgG (M-IgG) and rabbit IgG (R-IgG) for negative controls. […] Mock and ΔNp63α-FLAG-expressing BeWo cells were subjected to immunoblotting (left) and quantitative RT-PCR (right) analyses of GCM1, HTRA4, and hCGβ proteins and transcripts. […] BeWo cells stably expressing scramble or GCM1 shRNA were subjected to immunoblotting (left) and quantitative RT-PCR (right) analyses of GCM1 and ΔNp63α proteins and transcripts. […] JEG3 cells were mock treated (DMSO or control buffer (CTRL)) or treated with 50 μM FSK or 1 mM DB-cAMP for 24 h, followed by immunoblotting and quantitative RT-PCR analyses of the indicated trophoblast differentiation and stemness proteins or transcripts. […]
FIGS. 3A to 3I show reciprocal regulation of GCM1 and ΔNp63α activities in trophoblast differentiation. […] Cell fusion was quantified by fusion index. […]

[3] = tested on: ST-TS^Term#2 cells; assay: STB differentiation from TS^Term#2 cells with cyclocreatine; conditions: TS^Term#2 cells induced into STBs for 72 h with cyclocreatine (FIG. 11H)
From the text: FIGS. 11A to 11I show the regulation of STB differentiation by the GCM1-CKMT1 axis. […] TS^Term#1, TS^Term#2, and TS#1^GCM1-KO cells and their derivative STBs were subjected to RNA-seq analysis. […] TS^Term#1, TS^Term#2, and TS^Term#3 cells and their derivative STBs were subjected to immunoblotting and quantitative RT-PCR analyses of GCM1, hCGβ or CKMT1 proteins and transcripts. […] Scramble control and CKMT1-knockdown TS^Term#2 cells and their derivative STBs were stained with MitoTracker and CKMT1 Ab for immunofluorescence microscopy. Scale bars in FIGS. 11D and 11E, 100 μm. […] Scramble control and CKMT1-knockdown TS^Term#2 cells and their derivative STBs were subjected to immunoblotting and quantitative RT-PCR analyses of GCM1, hCGβ, LHB or CKMT1 proteins or transcripts. In a separated experiment, cells were stained with E-cadherin Ab for cell fusion analysis. Syncytial margins are marked with a stippled line. Cell fusion efficiency was measured by fusion index or the distribution of syncytia containing varying numbers of nuclei. Scale bar, 100 μm. […] Mock (ST)- or cyclocreatine-treated TS^Term#2 cells (ST+Cyclo-Cr) were induced into STBs for 72 h, followed by immunoblotting analysis of hCGβ protein. […]

[4] = tested on: Notch signaling; assay: Notch reporter (4xCSL-luciferase) assay; conditions: BeWo cells; 2 mM VPA, 48 hours (FIG. 6D)
Description: FIGS. 6A to 6I show the regulation of trophoblast stemness and differentiation by antagonism between ΔNp63α and GCM1. […] ITGA6-positive term CTBs were cultured in complete TS medium for 5 days and then maintained in the same medium or incomplete medium (vehicle alone without EGF and chemical inhibitors) for an additional 7 days. Cells were subjected to immunofluorescence microscopy of ΔNp63α, GCM1, and hCGβ. […] BeWo cells were incubated in complete or incomplete TS medium supplemented with the indicated growth factor or chemical inhibitor(s) for 24 h. Cells were harvested for quantitative RT-PCR analysis of the indicated stemness or differentiation genes. […] BeWo cells were treated with the indicated concentration of VPA for 24 hours and then harvested for immunoblotting and quantitative RT-PCR analyses of GCM1, ΔNp63α, and hCGβ. […] BeWo cells were transfected with 4XCSL-luciferase in the presence or absence of 2 mM VPA for 48 hours, followed by luciferase assays. […] EGFP-positive mock or Notch1IC-FLAG-expressing BeWo cells were treated with or without 50 μM FSK for 24 h, followed by immunoblotting and quantitative RT-PCR analyses of GCM1, hCGβ or HTRA4. […] Cells were then harvested for quantitative RT-PCR analysis of GCM1, ΔNp63α, HTRA4, hCGβ, and MKI67. […]

[5] = single agent in incomplete TS medium, 24 h (FIG. 6B)
[6] = EGF alone in incomplete TS medium, 24 h (FIG. 6B)
[7] = VPA 24 hours, dose-dependent (FIG. 6C)

## Cc1c[nH]c(-c2cnc(NCCNc3ccc(C#N)cn3)nc2-c2ccc(Cl)cc2Cl)n1 [CHIR99021]
[1]; [5]
  expression of ELF5, TEAD4, and AXIN2: upregulation
  expression of WNT10B: downregulation

## CCCC(=O)Nc1ncnc2c1ncn2[C@@H]1O[C@@H]2COP(=O)(O)O[C@H]2[C@H]1OC(=O)CCC [DB-cAMP, dibutyryl-cAMP]
[2]; 24 h (FIG. 2I)
  expression of ΔNp63α and trophoblast stemness genes ELF5, EOMES, and TEAD4: decreased expression
[2]; 24 h, immunoblotting and qRT-PCR (FIG. 2I)
  expression of GCM1 and its target genes syncytin-1 (SYN1), hCGβ, HTRA4, PGF, and WNT10B: increased expression

## epidermal growth factor (NSDSECPLSHDGYCLHDGVCMYIEALDKYACNCVVGYIGERCQYRDLKWWELR; not fully specified; Epidermal growth factor; UniProt P01133 971-1023, looked up) [EGF, growth factor in complete TS medium]
[1]; [6]
  GCM1 and WNT10B expression: suppressed
  hCGβ expression: enhanced

## NC1=NCCN1CC(=O)O [cyclocreatine]
[3]
  hCGβ, SYN1, and LHB expression: suppressed

## CCCC(CCC)C(=O)O [VPA, valproic acid]
[4]
  Notch reporter plasmid p4×CSL-luciferase activity: transactivated
[1]; [7]
  GCM1 and hCGβ expression: suppress
  ΔNp63α expression: increase
